Measured values published in patent US20240025884A1 (Dong-A ST Co., Ltd., priority 2022, published 2024).

biological target: GCN2 (Homo sapiens (Human), UniProt Q9P2K8); test: GCN2 Biochemical Assay (TR-FRET, GFP-eIF2S1 substrate phosphorylation); settings: read-out: IC50 (GCN2 Inhibitory Activity)
Summary of the method: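 In-house GCN2 (1.6 nM 2× stock) phosphorylates GFP-eIF2S1 (50 nM 2× stock) with ATP (0.2 mM 2× stock) and tRNA, pH 7.5, 70 min at room temperature; 10-point 3.16-fold compound series. TR-FRET detection with Tb-anti-phospho antibody, 2–3 h, Ex 340/Em 490/520 nm; artifact plate spiked with phospho-substrate.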

Chain of GCN2 (Q9P2K8 whole entry): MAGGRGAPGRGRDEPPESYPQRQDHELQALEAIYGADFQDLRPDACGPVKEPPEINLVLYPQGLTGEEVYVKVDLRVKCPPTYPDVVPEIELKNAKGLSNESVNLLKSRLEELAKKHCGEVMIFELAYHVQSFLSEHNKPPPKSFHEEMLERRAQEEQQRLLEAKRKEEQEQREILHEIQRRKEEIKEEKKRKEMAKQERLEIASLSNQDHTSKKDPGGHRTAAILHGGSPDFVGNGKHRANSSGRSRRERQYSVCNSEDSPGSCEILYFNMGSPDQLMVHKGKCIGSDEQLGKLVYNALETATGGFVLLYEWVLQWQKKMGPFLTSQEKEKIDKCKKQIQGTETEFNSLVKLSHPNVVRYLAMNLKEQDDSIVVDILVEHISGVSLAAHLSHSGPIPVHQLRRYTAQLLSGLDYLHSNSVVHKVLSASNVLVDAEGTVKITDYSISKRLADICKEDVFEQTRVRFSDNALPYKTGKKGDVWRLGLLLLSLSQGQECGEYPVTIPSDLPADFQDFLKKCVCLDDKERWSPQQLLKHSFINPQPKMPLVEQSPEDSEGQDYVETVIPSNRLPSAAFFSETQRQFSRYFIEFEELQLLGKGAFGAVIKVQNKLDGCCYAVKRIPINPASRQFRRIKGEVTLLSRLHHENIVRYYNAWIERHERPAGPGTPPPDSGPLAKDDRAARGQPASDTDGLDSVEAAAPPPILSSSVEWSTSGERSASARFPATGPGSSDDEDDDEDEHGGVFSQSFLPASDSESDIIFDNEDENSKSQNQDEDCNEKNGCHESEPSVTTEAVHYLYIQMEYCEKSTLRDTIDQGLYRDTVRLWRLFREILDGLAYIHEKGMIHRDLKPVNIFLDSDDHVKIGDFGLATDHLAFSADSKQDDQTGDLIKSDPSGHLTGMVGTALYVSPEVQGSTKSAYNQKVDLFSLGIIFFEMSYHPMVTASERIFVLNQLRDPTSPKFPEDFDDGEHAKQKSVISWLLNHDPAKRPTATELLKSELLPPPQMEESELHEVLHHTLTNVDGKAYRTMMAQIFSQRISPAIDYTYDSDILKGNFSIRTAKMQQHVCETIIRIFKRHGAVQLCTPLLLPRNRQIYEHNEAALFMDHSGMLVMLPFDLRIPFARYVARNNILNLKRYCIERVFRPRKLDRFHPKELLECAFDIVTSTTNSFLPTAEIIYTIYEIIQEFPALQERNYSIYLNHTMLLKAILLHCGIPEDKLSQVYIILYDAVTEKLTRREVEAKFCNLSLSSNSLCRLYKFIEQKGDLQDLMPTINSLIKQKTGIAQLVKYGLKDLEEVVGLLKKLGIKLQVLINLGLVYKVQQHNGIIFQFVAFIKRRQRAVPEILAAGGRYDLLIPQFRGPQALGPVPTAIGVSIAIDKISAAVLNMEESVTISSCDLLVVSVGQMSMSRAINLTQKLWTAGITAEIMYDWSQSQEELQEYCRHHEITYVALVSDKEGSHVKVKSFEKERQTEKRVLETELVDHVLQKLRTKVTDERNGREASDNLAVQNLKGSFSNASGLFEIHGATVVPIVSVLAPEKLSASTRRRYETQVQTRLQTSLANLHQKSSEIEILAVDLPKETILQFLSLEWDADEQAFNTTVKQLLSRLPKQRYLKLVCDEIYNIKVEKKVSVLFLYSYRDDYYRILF

First: COc1ncccc1-c1cccc2c1CN(c1cccc3c(-c4nc(Nc5cc(C)n(C)n5)ncc4C)c[nH]c13)C2=O [Example 435, 2-(3-(2-((1,5-dimethyl-1H-pyrazol-3-yl)amino)-5-methylpyrimidin-4-yl)-1H-indol-7-yl)-4-(2-methoxypyridin-3-yl)isoindolin-1-one]
Second: COc1ccccc1-c1cccc2c1CN(c1cccc3c(-c4nc(Nc5cc(C)n(C)n5)ncc4C)c[nH]c13)C2=O [Example 438, 2-(3-(2-((1,5-dimethyl-1H-pyrazol-3-yl)amino)-5-methylpyrimidin-4-yl)-1H-indol-7-yl)-4-(2-methoxyphenyl)isoindolin-1-one]
The IC50 of the first is lower: less than 10 nM for the first, 10 to 100 nM for the second. The first is the more potent here.

`Cc1cnc(Nc2cc(C)n(C)n2)nc1-c1c[nH]c2c(N3Cc4c(cccc4-c4ccc(N(C)C)cc4)C3=O)cccc12` [Example 436, 2-(3-(2-((1,5-dimethyl-1H-pyrazol-3-yl)amino)-5-methylpyrimidin-4-yl)-1H-indol-7-yl)-4-(4-(dimethylamino)phenyl)isoindolin-1-one] and `Cc1ccccc1-c1cccc2c1CN(c1cccc3c(-c4nc(Nc5cc(C)n(C)n5)ncc4C)c[nH]c13)C2=O` [Example 440, 2-(3-(2-((1,5-dimethyl-1H-pyrazol-3-yl)amino)-5-methylpyrimidin-4-yl)-1H-indol-7-yl)-4-(o-tolyl)isoindolin-1-one] fall in the same range of IC50: 10 to 100 nM for the first, 10 to 100 nM for the second.

First: Cc1cnc(Nc2cc(C)n(C)n2)nc1-c1c[nH]c2c(N3Cc4c(cccc4-c4ccccc4CO)C3=O)cccc12 [Example 437, 2-(3-(2-((1,5-dimethyl-1H-pyrazol-3-yl)amino)-5-methylpyrimidin-4-yl)-1H-indol-7-yl)-4-(2-(hydroxymethyl)phenyl)isoindolin-1-one]
Second: Cc1cnc(Nc2cc(C)n(C)n2)nc1-c1c[nH]c2c(N3Cc4c(cccc4-c4ccccc4O)C3=O)cccc12 [Example 441, 2-(3-(2-((1,5-dimethyl-1H-pyrazol-3-yl)amino)-5-methylpyrimidin-4-yl)-1H-indol-7-yl)-4-(2-hydroxyphenyl)isoindolin-1-one]
The IC50 of the first is lower: less than 10 nM for the first, 10 to 100 nM for the second.

Compared with `Cc1cnc(Nc2cc(C)n(C)n2)nc1-c1c[nH]c2c(N3Cc4c(cccc4-c4ccccc4-c4ccccc4)C3=O)cccc12` [Example 439, 4-([1,1′-biphenyl]-2-yl)-2-(3-(2-((1,5-dimethyl-1H-pyrazol-3-yl)amino)-5-methylpyrimidin-4-yl)-1H-indol-7-yl)isoindolin-1-one], `Cc1cnc(Nc2cc(C)n(C)n2)nc1-c1c[nH]c2c(N3Cc4c(cccc4-c4ccc5ccncc5c4)C3=O)cccc12` [Example 448, 2-(3-(2-((1,5-dimethyl-1H-pyrazol-3-yl)amino)-5-methylpyrimidin-4-yl)-1H-indol-7-yl)-4-(isoquinolin-7-yl)isoindolin-1-one] is lower in IC50: greater than 1000 nM for the first, less than 10 nM for the second.

`Cc1cnc(Nc2cc(C)n(C)n2)nc1-c1c[nH]c2c(N3Cc4c(cccc4-c4ccc[nH]4)C3=O)cccc12` [Example 442, 2-(3-(2-((1,5-dimethyl-1H-pyrazol-3-yl)amino)-5-methylpyrimidin-4-yl)-1H-indol-7-yl)-4-(1H-pyrrol-2-yl)isoindolin-1-one] and `Cc1ccc(-c2cccc3c2CN(c2cccc4c(-c5nc(Nc6cc(C)n(C)n6)ncc5C)c[nH]c24)C3=O)s1` [Example 451, 2-(3-(2-((1,5-dimethyl-1H-pyrazol-3-yl)amino)-5-methylpyrimidin-4-yl)-1H-indol-7-yl)-4-(5-methylthiophen-2-yl)isoindolin-1-one] fall in the same range of IC50: 10 to 100 nM for the first, 10 to 100 nM for the second.

First: Cc1cnc(Nc2cc(C)n(C)n2)nc1-c1c[nH]c2c(N3Cc4c(cccc4-c4cccn4C(=O)OC(C)(C)C)C3=O)cccc12 [Example 443, tert-butyl 2-(2-(3-(2-((1,5-dimethyl-1H-pyrazol-3-yl)amino)-5-methylpyrimidin-4-yl)-1H-indol-7-yl)-1-oxoisoindolin-4-yl)-1H-pyrrole-1-carboxylate]
Second: Cc1cnc(Nc2cc(C)n(C)n2)nc1-c1c[nH]c2c(N3Cc4c(cccc4-c4ccnc(O)c4)C3=O)cccc12 [Example 446, 2-(3-(2-((1,5-dimethyl-1H-pyrazol-3-yl)amino)-5-methylpyrimidin-4-yl)-1H-indol-7-yl)-4-(2-hydroxypyridin-4-yl)isoindolin-1-one]
The IC50 of the first is higher: 10 to 100 nM for the first, less than 10 nM for the second.

First: Cc1cnc(Nc2cc(C)n(C)n2)nc1-c1c[nH]c2c(N3Cc4c(cccc4-c4c(C)noc4C)C3=O)cccc12 [Example 444, 2-(3-(2-((1,5-dimethyl-1H-pyrazol-3-yl)amino)-5-methylpyrimidin-4-yl)-1H-indol-7-yl)-4-(3,5-dimethylisoxazol-4-yl)isoindolin-1-one]
Second: Cc1cscc1-c1cccc2c1CN(c1cccc3c(-c4nc(Nc5cc(C)n(C)n5)ncc4C)c[nH]c13)C2=O [Example 453, 2-(3-(2-((1,5-dimethyl-1H-pyrazol-3-yl)amino)-5-methylpyrimidin-4-yl)-1H-indol-7-yl)-4-(4-methylthiophen-3-yl)isoindolin-1-one]
The IC50 of the first is lower: less than 10 nM for the first, 10 to 100 nM for the second. The first is the more potent here.

Compared with `COc1cc(-c2cccc3c2CN(c2cccc4c(-c5nc(Nc6cc(C)n(C)n6)ncc5C)c[nH]c24)C3=O)ccn1` [Example 445, 2-(3-(2-((1,5-dimethyl-1H-pyrazol-3-yl)amino)-5-methylpyrimidin-4-yl)-1H-indol-7-yl)-4-(2-methoxypyridin-4-yl)isoindolin-1-one], `Cc1cnc(Nc2cc(C)n(C)n2)nc1-c1c[nH]c2c(N3Cc4c(cccc4-c4ccc5c(cnn5C)c4)C3=O)cccc12` [Example 449, 2-(3-(2-((1,5-dimethyl-1H-pyrazol-3-yl)amino)-5-methylpyrimidin-4-yl)-1H-indol-7-yl)-4-(i-methyl-1H-indazol-5-yl)isoindolin-1-one] is higher in IC50: less than 10 nM for the first, 10 to 100 nM for the second.

`Cc1cnc(Nc2cc(C)n(C)n2)nc1-c1c[nH]c2c(N3Cc4c(cccc4-c4ccncc4N)C3=O)cccc12` [Example 447, 4-(3-aminopyridin-4-yl)-2-(3-(2-((1,5-dimethyl-1H-pyrazol-3-yl)amino)-5-methylpyrimidin-4-yl)-1H-indol-7-yl)isoindolin-1-one] and `Cc1cnccc1-c1cccc2c1CN(c1cccc3c(-c4nc(Nc5cc(C)n(C)n5)ncc4C)c[nH]c13)C2=O` [Example 455, 2-(3-(2-((1,5-dimethyl-1H-pyrazol-3-yl)amino)-5-methylpyrimidin-4-yl)-1H-indol-7-yl)-4-(3-methylpyridin-4-yl)isoindolin-1-one] cannot be ordered by IC50: less than 10 nM for the first, less than 10 nM for the second.

First: Cc1cnc(Nc2cc(C)n(C)n2)nc1-c1c[nH]c2c(N3Cc4c(cccc4-c4ccc5cnn(C)c5c4)C3=O)cccc12 [Example 450, 2-(3-(2-((1,5-dimethyl-1H-pyrazol-3-yl)amino)-5-methylpyrimidin-4-yl)-1H-indol-7-yl)-4-(i-methyl-1H-indazol-6-yl)isoindolin-1-one]
Second: Cc1cnc(Nc2cc(C)n(C)n2)nc1-c1c[nH]c2c(N3Cc4c(cccc4-c4ccc5c(c4)CCC5)C3=O)cccc12 [Example 452, 4-(2,3-dihydro-1H-inden-5-yl)-2-(3-(2-((1,5-dimethyl-1H-pyrazol-3-yl)amino)-5-methylpyrimidin-4-yl)-1H-indol-7-yl)isoindolin-1-one]
The IC50 of the first is lower: 10 to 100 nM for the first, 100 to 1000 nM for the second.

For `Cc1cc(-c2ccc(F)c3c2CN(c2cccc4c(-c5nc(Nc6cc(C)n(C)n6)ncc5C)c[nH]c24)C3=O)ccn1` [Example 454, 2-(3-(2-((1,5-dimethyl-1H-pyrazol-3-yl)amino)-5-methylpyrimidin-4-yl)-1H-indol-7-yl)-7-fluoro-4-(2-methylpyridin-4-yl)isoindolin-1-one], the IC50 was less than 10 nM.
